Here are results for 24 compounds from article PMC7024213, “Absolute Configuration of Mycosporine-Like Amino Acids, Their Wound Healing Properties and In Vitro Anti-Aging Effects” (Marine Drugs, 2019).

Test [1] has as its system pentosidine-like AGEs. The experiment in a line: Inhibition of advanced glycation end products (AGEs) formation, BSA/D-ribose fluorescence assay. The format is biochemical. As to conditions: for IC50: BSA 10 mg/mL, D-ribose 0.5 M, 37 °C, 24 h. The method, then: The anti-AGE assay was carried out following the methodology previously reported by Séro et al.. Briefly, the samples (1 µM to 3 mM) were incubated with D-ribose (0.5 M) and bovine serum albumin (BSA, 10 mg/mL) in a Na-phosphate buffer (50 mM pH 7.4); the solutions were incubated in black microtiter plates (96 wells) at 37 °C for 24 h in a closed system before AGE fluorescence measurement. Both vesperlysines-like (λexc370 nm; λem440 nm) and pentosidine-like (λexc335 nm; λem385 nm) AGE fluorescence were measured using a microplate spectrofluorometer Infinite M200 (Tecan, Lyon, France). To avoid quenching phenomena, the fluorescence resulting from the incubation in the same conditions of BSA (10 mg/mL) and the tested extract (1 µM to 3 mM) was subtracted from each measurement. The negative control, i.e., 100% inhibition of AGEs formation, consisted of wells with only BSA. A control, i.e., no inhibition of AGEs formation, consisted of wells with BSA (10 mg/mL) and D-ribose (0.5 M). The final volume assay was 100 µL. The percentage of AGE formation was calculated as follows for each extract concentration: AGEs (%) = (fluorescence intensity [sample]−fluorescence [blank of sample]/fluorescence intensity [control]−fluorescence [blank of control]) × 100.
Dose-effect curves were best fitted with a sigmoidal dose-response equation [four parameters logistic model: bottom and top plateaus, the EC50, and the slope factor (Hill’s slope)] using Sigma Plot 14.0 software, which enabled calculation of the IC50 values. The acceptance criteria were established by the correlation coefficient (r²) > 0.97. Results were compared with those of reference products, aminoguanidine and rutin.

Test [2] deals with collagenase type V. More on the design: method as in Hartmann et al. [18]. The settings on record: collagenase results previously published; 95% confidence interval in brackets; ref Hartmann et al. [18]; read-out: Collagenase Inhibition IC50 µM (CI 95 ±); cited from earlier work.
The next test concerns HaCaT keratinocytes. The experiment in a line: Wound scratch assay. In kind it is cell-based, human. The settings on record: 1 µM and 10 µM, after 24 h, p < 0.05 vs untreated control. The method, then:
HaCaT keratinocytes were provided by Prof. Dr. Norbert E. Fusenig (DKFZ, Heidelberg, Germany) and cultivated in a DMEM medium, supplemented with FCS (10%), penicillin/streptomycin solution (1%), and non-essential amino acids (1%) (PAA, Pasching, Austria). HaCaT keratinocytes were cultivated at 37 °C, 5% CO2.
The evaluation of 4 different MAAs (compounds 1, 2, 4, and 8) on the migration of HaCaT cells was determined as described by Balekar et al.. HaCaT cells were plated into a 12-well plate at a concentration of 1 × 10^5 cells containing Dulbecco’s modified Eagle’s medium culture medium (DMEM) supplemented with 10% fetal calf serum (FCS) and incubated at 37 °C in a humidified 5% CO2 atmosphere until confluence has been reached. After attachment of the cells to the plate, medium was removed and the adherent cell layer was scratched with a sterile pipette tip. Cellular debris was removed by washing off with PBS (2 × 1 mL). Subsequently, the cells were treated with DMEM supplemented with 10% FCS containing the individual MAA test compounds at the concentrations of (10 µM to 1 µM). Control cells received only fresh DMEM +10% FCS, cells used as the positive control were treated with fresh DMEM + 20% FCS. Following, the cell cultures were incubated at […] in a humidified 5% CO2 atmosphere. Finally, the area of each scratch was determined by quantitative imaging at time 0 (just after scratching cell monolayers) and after 24 h treatment with the compounds (Leica DFC300, Wetzlar Germany; 40× magnification). The captured images were then analyzed using Image J software.
The migration rate can be expressed as the percentage of area reduction or wound closure:(2) Wound closure %=100 [Area (t0)−Area( t24)/Area (t0)]
Statistical analysis: The data were analyzed in three independent experiments and were expressed as mean ± SEM. One-way ANOVA, followed by an unpaired t-test to compare control group and treated group was performed. P-value of ≤ 0.05 was considered as statistically significant.

For test [3], the system named is UV-A induced MMPs such as MMP-1 and elastase. More on the design: method as in Ryu et al. [20]. The settings on record: concentrations at 40 µM; ref Ryu et al. [20]; cited from earlier work.
Test [4] has as its target collagenase type V. Put plainly: Collagenase inhibition assay (spectrofluorometric). In kind it is biochemical. The settings on record: for IC50: collagenase type V, MMP-2 fluorogenic substrate, 1% DMSO, 95% confidence interval in brackets, read-out: Collagenase Inhibition IC50 µM (CI 95 ±). The procedure:
The assay was carried out according to a previously published protocol by Hartmann et al.. All required reagents for the assay were purchased from Sigma Aldrich. Both enzyme (collagenase type V; C-9263) and substrate (SCP0192 MMP-2 substrate, Sigma Aldrich) were dissolved in the reagent buffer (Tris–HCl; 10 mM pH 7.3) and diluted from stock solutions to 100 μg/mL (initial) enzyme concentration and 55.55 μg/mL (initial) substrate concentration prior to use. Test samples and standard inhibitor phosphoramidon disodium salt used as positive control were dissolved in H2O/DMSO, always maintaining a final DMSO concentration of 1% in each well. The final reaction volume of 100 μL was composed of 25 μL buffer solution, and 25 μL sample/positive controls which were added first followed by 25 μL enzyme. This mixture was incubated for 10 min at 37 °C. Finally, 25 µL of substrate were added to initiate the readout reaction. The substrate which carries a fluorogenic residue (7-methoxycoumarin-4-yl acetic acid) is continuously dissipated by the enzyme collagenase. Measurements are taken after 30 min at an excitation wavelength of λ = 320 nm and λ = 400 nm emission wavelengths in a 96-well microplate format using an Infinite F 200 pro microplate reader equipped with filter-based technology (Tecan, Männedorf, Switzerland). An untreated control group containing 1% DMSO without sample was set to 100% enzyme activity. Blank wells without enzyme were measured accordingly and subtracted from the fluorescent units of each well. Two positive controls were used. First, the well-established phosphoramidon disodium salt and second, to include natural product based inhibitors, rutin and EGCG were used. Measurements were performed in triplicates using 96 well plates, and each substance was measured in three independent experiments. […] IC50 values were calculated by fitting data (log (Inhibitor) vs. response–variable slope) using GraphPad Prism (GraphPad Software, San Diego, CA, USA).
Statistics: The data were analyzed at least in three independent experiments and were expressed as mean ± SEM. A Shapiro Wilk normality test was performed to confirm the Gaussian distribution of the data. One-way ANOVA, followed by a Dunett’s multiple comparison test in GraphpadPrism 5 were performed to clarify statistical significance. p-Value of ≤ 0.05 was considered statistically significant.

The target of another test is collagenase. The settings on record: cited from earlier work.
Test [5] deals with hen egg white lysozyme (HEWL). As to conditions: read-out: Inhibition of glycation-dependent cross-linking of HEWL, IC50; literature finding, reference not given; cited from earlier work.
Test [6] relates to pentosidine-like AGEs. As to conditions: cited from earlier work.
The mark [7] stands for this setting: read-out: Collagenase inhibition IC50.
The mark [8] stands for this setting: concentration range 1 to 350 µM.

By IC50 is commonly meant the point on the concentration scale where inhibition reaches its midpoint.

SMILES strings stand for the structures. Where a name gives a salt, the structure may show the parent alone. Read-outs that look alike come from different tables or passages of the source.

With `N=C(N)NN` [Aminoguanidine, reference compound], the IC50 in the test with pentosidine-like AGEs [1] stood at 1400 µM.
`COC1=C(N[C@@H](CO)C(=O)O)C[C@](O)(CO)CC1=NCC(=O)O` [Compound 1, Shinorine]: the figures for the IC50 on collagenase type V [2] and with pentosidine-like AGEs [1] were 104 µM and 103 µM, respectively. Also, the “Migration / wound closure in scratch assay (words)” value (“Migration / wound closure” for short) in the test on HaCaT keratinocytes is “significant migration and narrowing of the scratch area”.
For `COC1=C(N[C@H](C(=O)O)[C@@H](C)O)C[C@](O)(CO)CC1=NCC(=O)O` [Compound 2, porphyra-334], the results for the IC50 on collagenase type V [2] and with pentosidine-like AGEs [1] were 106 µM and 90 µM, respectively. In the test on HaCaT keratinocytes, the “Migration / wound closure” value is “significant migration and narrowing of the scratch area”. Besides, in test [3], the “Inhibition of UV-A induced MMPs such as MMP-1 and elastase” value is “concentration-dependent inhibition”. Moreover, the “Procollagen production” value in test [3] is reported as “increase in procollagen production”.
As for `CNC1=C(OC)C(=N[C@H](C(=O)O)[C@@H](C)O)C[C@](O)(CO)C1` [Compound 3, mycosporine-methylamine-threonine], the IC50 was found to be 250 µM on collagenase type V [4] and 150 µM with pentosidine-like AGEs [1].
`COC1=C(N[C@@H](C)C(=O)O)C[C@](O)(CO)CC1=NCC(=O)O` [Compound 4, mycosporine-alanine-glycine]: the “Migration / wound closure” value in the test with HaCaT keratinocytes was “significant migration and narrowing of the scratch area”. Moreover, the IC50 on collagenase type V [4] worked out at 158 µM; in the test on pentosidine-like AGEs [1], 75 µM.
As for `COC1=C(NC[C@@H](C)O)C[C@](O)(CO)CC1=NCC(=O)O` [Compound 5, aplysiapalythine A], the IC50 on collagenase type V [4] worked out at 80.7 µM; with pentosidine-like AGEs [1], 400 µM.
Taken in the same sequence, the figures for `COC1=C(NCCO)C[C@](O)(CO)CC1=NCC(=O)O` [Compound 6, asterina-330] were 70.9 µM and 125 µM.
As for `COC1=C(N[C@H](C(=O)O)[C@@H](C)O)C[C@](O)(CO)CC1=N[C@@H](CCC(N)=O)C(=O)O` [Compound 8, bostrychine-B], the “Migration / wound closure” value was “significant migration and narrowing of the scratch area” in the test with HaCaT keratinocytes; “slightly higher wound closure ability” with HaCaT keratinocytes (listed as bostrychine B). Besides, on collagenase type V [4], the IC50 was 104 µM.
On to `COC1=C(N[C@H](C(=O)O)[C@@H](C)O)C[C@](O)(CO)CC1=N[C@@H](CCC(=O)O)C(=O)O` [Compound 10, bostrychine-D], for which the IC50 was 118 µM at collagenase type V [4] and 85 µM with pentosidine-like AGEs [1].
For `COC1=C(NC[C@@H](C)O)C[C@@](O)(CO)CC1=N[C@@H](CCC(=O)O)C(=O)O` [Compound 11, bostrychine-E], in that order: 163 µM and 150 µM.
For `COC1=C(NCCC(=O)O)C[C@@](O)(CO)CC1=N[C@H](C(=O)O)[C@@H](C)O` [Compound 12, bostrychine-F], in that order: 90 µM and 200 µM.
On to `OC[C@H]1O[C@@H](Oc2cc(O)cc(/C=C/c3ccc(O)c(O)c3)c2)[C@H](O)[C@@H](O)[C@@H]1O` [E-astringin], for which the IC50 on collagenase (setting [7]) was 125 µM.
`OC[C@H]1O[C@@H](Oc2cc(O)cc(/C=C/c3ccc(O)cc3)c2)[C@H](O)[C@@H](O)[C@@H]1O` [E-piceid]: the IC50 at collagenase (setting [7]) was 259 µM.
On to `O=C(O[C@@H]1Cc2c(O)cc(O)cc2O[C@@H]1c1cc(O)c(O)c(O)c1)c1cc(O)c(O)c(O)c1` [Epigallocatechingalleate, reference compound], for which the IC50 at collagenase (used as positive control in many publications, read-out: Collagenase inhibition IC50 (published values)) was around 220 µM; at collagenase type V [4], 46.6 µM.
Take `CC(C)C[C@H](NP(=O)(O)O[C@@H]1O[C@@H](C)[C@H](O)[C@@H](O)[C@H]1O)C(=O)N[C@@H](Cc1c[nH]c2ccccc12)C(=O)O` [Phosphoramidon, phosphoramidon disodium salt, reference compound]: the IC50 at collagenase type V [4] amounted to 1.9 µM.
Take `C[C@@H]1O[C@@H](OC[C@H]2O[C@@H](Oc3c(-c4ccc(O)c(O)c4)oc4cc(O)cc(O)c4c3=O)[C@H](O)[C@@H](O)[C@@H]2O)[C@H](O)[C@H](O)[C@H]1O` [Rutin, reference compound]: the Collagenase inhibition in the test with collagenase type V [4] (at 100 µM, 1% DMSO control group set to 100% enzyme activity) was determined as 100 µM -> 52% Inhibition *. In addition, the IC50 with pentosidine-like AGEs [1] came out at 85 µM.
In the case of `COC1=C(NCC(C)O)C[C@](O)(CO)CC1=NCC(=O)O` (stereo partly drawn) [aplysiapalythine A], the “Collagenase inhibition” value in the test on collagenase type V [4] (setting [8]) is “good inhibition”.
On the same count and under the same terms, for `COC1=C(NCC(=O)O)CC(O)(CO)CC1=NCCO` (stereo not drawn) [asterina-330] the value was “good inhibition”.
As to `COC1=C(NCC(=O)O)CC(O)(CO)CC1=NCC(=O)O` (stereo not drawn) [mycosporine-2-glycine], the IC50 in test [5] was 1610 µM.
As to `COC1=C(NCC(=O)O)C[C@@](O)(CO)CC1=O` [mycosporine-glycine], the “Collagenase inhibition” value with collagenase type V [4] (setting [8]) was “very pronounced inhibition”.
For the compound `COC1=C(NCC(=O)O)CC(O)(CO)CC1=N` (stereo not drawn) [palythine], the “Anti-AGEs activity” value in the test on pentosidine-like AGEs [1] (concentration range 1 µM to 3 mM) is recorded as “weakest effect”.
For `O=c1c(O)c(-c2ccc(O)c(O)c2)oc2cc(O)cc(O)c12` [quercetin], in the test on pentosidine-like AGEs [6], the “AGEs inhibition” value was “strong AGEs inhibitor”.
In the case of `O=C1c2c(O)cc(O)cc2O[C@H](c2ccc(O)c(OC3O[C@H](CO)[C@@H](O)[C@H](O)[C@H]3O)c2)[C@H]1O` (stereo partly drawn) [taxifolin 3′-O-glucopyranoside], the IC50 at collagenase (setting [7]) was 141 µM.
Turning to `O=C1c2c(O)cc(O)cc2OC(c2ccc(O)c(O)c2)C1O` (stereo not drawn) [taxifolin], the IC50 at collagenase (setting [7]) was 193 µM.
